Patent EP2818472A1, “Imidazo[4,5-c]pyridine and pyrrolo[3,2-c]pyridine compounds as G-protein-coupled receptor kinase 5 (GRK5) modulators” (Max-Planck-Gesellschaft zur Förderung der Wissenschaften …, priority 2013, dated 2014)

Tested on: beta-TC6 cells
Experiment: Insulin HTRF assay (relative activity Ar) in beta-TC6 cells
Assay type: cell-based, mouse
Settings: Mus musculus, Beta-TC6, 4 h, insulin HTRF, supernatant of beta-TC6 cells, incubation with test compound at 37°C for 2, 3, 4h; read-out: Ar (relative activity)
Text: For further screening of compounds derived from compounds described above for their ability to regulate insulin release an insulin HTRF® (Homogeneous Time-Resolved Fluorescence; Cisbio International, France) was used. This assay is based on two antibodies against insulin binding to different epitopes of insulin. One of these antibodies is coupled to Europium (Ab-Eu-Cryptate) and the other one to the fluorophore XL665 (Ab-XL665). If the insulin is secreted into the supernatant of cell culture, both antibodies can bind to insulin and come therefore into close proximity, which allows upon excitation that energy transfer between (FRET) the long-life fluorescent donor Europium (cryptate) and the acceptors XL665. FRET increases proportionally with insulin concentration.
The automated assay protocol is as follows: • On day 1, 15k beta-TC6 cells per well were seeded for 24 or 48 h in 50 µL complete medium. On day 2 or respective on day 3, the medium is removed and cells are washed with 60 µL 1xPBS and 20 µL induction buffer is added using BioTek washer. Subsequently, 10 µL Sunitininb (5 -µM f.c.) or the test compound in induction buffer; 0.5% f.c. DMSO (CyBi-well) is transferred to the cells. The cells are then incubated at 37°C for 2, 3, 4h.
First 10 µL supernatant is transferred from the cell plates in HTRF plates (CyBi-well). 10 µL of 0, 1, 2, and 4 ng/ml insulin standard controls in assay medium is used as a control. To each well 10 µL of combined 1:25 Ab-XL665 (Acc) and 1:20 Ab-Eu-Cryptate (WellMate) are added and incubated for 120 min at RT in the dark. Finally HTRF is measured on ViewLux ultra high throughput microplate imager (PerkinElmer).
The evaluation software DataFactoty derives relative activities Ar according to the following equation: Ar = (V-R(0%control))/(R(100%control) -R0%control)) × 100 [formula]
The activity of the compounds was classified according to their Ar (relative activity) into the following ranges: […]

Compared with `CN(C)C(=O)c1ccc(-c2cc3cnc(Nc4cccc(NS(C)(=O)=O)c4)cc3[nH]2)cc1` [Compound 39, 4-[6-[3-(methanesulfonamido)anilino]-1H-pyrrolo[3,2-c]pyridin-2-yl]-N,N-dimethyl-benzamide], `CC(=O)Nc1cccc(Nc2cc3[nH]c(-c4ccc(C(=O)N(C)C)cc4)cc3cn2)c1` [Compound 41, 4-[6-(3-acetamidoanilino)-1H-pyrrolo[3,2-c]pyridin-2-yl]-N,N-dimethyl-benzamide] is higher in Emax: 50 to 100% for the first, > 100% for the second.

First: CN(C)C(=O)c1ccc(Nc2cc3[nH]c(-c4ccc(C(=O)N(C)C)cc4)cc3cn2)cc1 [Compound 40, 4-[6-[4-(dimethylcarbamoyl)anilino]-1H-pyrrolo[3,2-c]pyridin-2-yl]-N,N-dimethyl-benzamide]
Second: CN(C)C(=O)c1ccc(-c2cc3cnc(Nc4ccc(S(C)(=O)=O)cc4)cc3[nH]2)cc1 [Compound 43, N,N-dimethyl-4-[6-(4-methylsulfonylanilino)-1H-pyrrolo[3,2-c]pyridin-2-yl]benzamide]
The Emax of the first is higher: > 100% for the first, 50 to 100% for the second.

Compared with `CC(=O)c1cccc(Nc2cc3[nH]c(-c4ccc(C(=O)N(C)C)cc4)cc3cn2)c1` [Compound 42, 4-[6-(3-acetylanilino)-1H-pyrrolo[3,2-c]pyridin-2-yl]-N,N-dimethyl-benzamide], `CC(C)Oc1cccc(Nc2cc3[nH]c(-c4ccc(C(=O)N(C)C)cc4)cc3cn2)c1` [Compound 44, 4-[6-(3-isopropoxyanilino)-1H-pyrrolo[3,2-c]pyridin-2-yl]-N,N-dimethyl-benzamide] is lower in Emax: 50 to 100% for the first, 30 to 50% for the second.

First: COc1cccc(Nc2cc3c(cn2)cc(-c2ccc(C(=O)N(C)C)cc2)n3C)c1 [Compound 45, 4-[6-(3-methoxyanilino)-1-methyl-pyrrolo[3,2-c]pyridin-2-yl]-N,N-dimethyl-benzamide]
Second: CN(C)C(=O)c1ccc(-c2cc3cnc(Nc4cccc(O)c4)cc3n2C)cc1 [Compound 53, 4-[6-(3-hydroxyanilino)-1-methyl-pyrrolo[3,2-c]pyridin-2-yl]-N,N-dimethyl-benzamide]
The Emax of the first is lower: 30 to 50% for the first, 50 to 100% for the second.

`COc1ccc(Nc2cc3c(cn2)cc(-c2ccc(C(=O)N(C)C)cc2)n3C)cc1OC` [Compound 46, 4-[6-(3,4-dimethoxyanilino)-1-methyl-pyrrolo[3,2-c]pyridin-2-yl]-N,N-dimethyl-benzamide] and `COc1ccc(Nc2cc3c(cn2)cc(-c2ccc(C(=O)N(C)C)cc2)n3C)cc1O` [Compound 54, 4-[6-(3-hydroxy-4-methoxy-anilino)-1-methyl-pyrrolo[3,2-c]pyridin-2-yl]-N,N-dimethyl-benzamide] fall in the same range of Emax: 50 to 100% for the first, 50 to 100% for the second.

`CN(C)C(=O)c1ccc(-c2cc3cnc(Nc4cccnc4)cc3n2C)cc1` [Compound 47, N,N-dimethyl-4-[1-methyl-6-(3-pyridylamino)pyrrolo[3,2-c]pyridin-2-yl]benzamide] and `CN(C)C(=O)c1ccc(-c2cc3cnc(Nc4ccccc4)cc3n2C)cc1` [Compound 48, 4-(6-anilino-1-methyl-pyrrolo[3,2-c]pyridin-2-yl)-N,N-dimethyl-benzamide] fall in the same range of Emax: 50 to 100% for the first, 50 to 100% for the second.

`CN1CCN(c2ccc(Nc3cc4c(cn3)cc(-c3ccc(C(=O)N(C)C)cc3)n4C)cc2)CC1` [Compound 49, N,N-dimethyl-4-[1-methyl-6-[4-(4-methylpiperazin-1-yl)anilino]pyrrolo[3,2-c]pyridin-2-yl]benzamide] and `CN(C)C(=O)c1ccc(-c2cc3cnc(Nc4cccc(N(C)C)c4)cc3n2C)cc1` [Compound 50, 4-[6-[3-(dimethylamino)anilino]-1-methyl-pyrrolo[3,2-c]pyridin-2-yl]-N,N-dimethyl-benzamide] fall in the same range of Emax: 50 to 100% for the first, 50 to 100% for the second.

Compared with `CN(C)C(=O)c1ccc(-c2cc3cnc(Nc4ccccn4)cc3n2C)cc1` [Compound 51, N,N-dimethyl-4-[1-methyl-6-(2-pyridylamino)pyrrolo[3,2-c]pyridin-2-yl]benzamide], `CN(C)c1ccc(-c2cc3cnc(Nc4ccccn4)cc3n2C)cc1` [Compound 59, 2-(4-dimethylaminophenyl)-1-methyl-N-(2-pyridyl)pyrrolo[3,2-c]pyridin-6-amine] is lower in Emax: 30 to 50% for the first, 0 to 30% for the second.

Compared with `CN(C)C(=O)c1ccc(-c2cc3cnc(N(C)c4ccccc4)cc3n2C)cc1` [Compound 52, N,N-dimethyl-4-[1-methyl-6-(N-methylanilino)pyrrolo[3,2-c]pyridin-2-yl]benzamide], `CC(=O)Nc1cccc(Nc2cc3c(cn2)cc(-c2ccc(C(=O)N(C)C)cc2)n3C)c1` [Compound 56, 4-[6-(3-acetamidoanilino)-1-methyl-pyrrolo[3,2-c]pyridin-2-yl]-N,N-dimethyl-benzamide] is higher in Emax: 30 to 50% for the first, 50 to 100% for the second.

Compared with `CN(C)C(=O)c1ccc(-c2cc3cnc(Nc4cccc(NS(C)(=O)=O)c4)cc3n2C)cc1` [Compound 55, 4-[6-[3-(methanesulfonamido)anilino]-1-methyl-pyrrolo[3,2-c]pyridin-2-yl]-N,N-dimethyl-benzamide], `CC(=O)Nc1ccc(Nc2cc3c(cn2)cc(-c2ccc(C(=O)N(C)C)cc2)n3Cc2ccccc2)cc1` [Compound 57, 4-[6-(4-acetamidoanilino)-1-benzyl-pyrrolo[3,2-c]pyridin-2-yl]-N,N-dimethyl-benzamide] is lower in Emax: 50 to 100% for the first, 30 to 50% for the second.

Compared with `CN(C)C(=O)c1ccc(-c2cc3cnc(Nc4ccncn4)cc3n2Cc2ccccc2)cc1` [Compound 58, 4-[1-benzyl-6-(pyrimidin-4-ylamino)pyrrolo[3,2-c]pyridin-2-yl]-N,N-dimethyl-benzamide], `CN(C)c1ccc(-c2cc3cnc(Nc4ccncn4)cc3n2Cc2ccccc2)cc1` [Compound 61, 1-benzyl-2-(4-dimethylaminophenyl)-N-pyrimidin-4-yl-pyrrolo[3,2-c]pyridin-6-amine] is lower in Emax: 30 to 50% for the first, 0 to 30% for the second.

Compared with `CN(C)c1ccc(-c2cc3cnc(Nc4cccc(O)c4)cc3n2Cc2ccccc2)cc1` [Compound 60, 3-[[1-benzyl-2-(4-dimethylaminophenyl)pyrrolo[3,2-c]pyridin-6-yl]amino]phenol], `Cc1cccc(Nc2cc3[nH]c(-c4ccccn4)cc3cn2)c1` [Compound 64, N-(m-tolyl)-2-(2-pyridyl)-1H-pyrrolo[3,2-c]pyridin-6-amine] is higher in Emax: 0 to 30% for the first, 50 to 100% for the second.

First: COc1cc(Nc2cc3[nH]c(-c4ccccn4)cc3cn2)cc(OC)c1OC [Compound 62, 2-(2-pyridyl)-N-(3,4,5-trimethoxyphenyl)-1H-pyrrolo[3,2-c]pyridin-6-amine]
Second: COc1ccc(Nc2cc3[nH]c(-c4ccccn4)cc3cn2)c(C)c1 [Compound 63, N-(4-methoxy-2-methyl-phenyl)-2-(2-pyridyl)-1H-pyrrolo[3,2-c]pyridin-6-amine]
The Emax of the first is higher: > 100% for the first, 50 to 100% for the second.

First: COc1ccc(Nc2cc3[nH]c(-c4ccccn4)cc3cn2)cc1 [Compound 65, N-(4-methoxyphenyl)-2-(2-pyridyl)-1H-pyrrolo[3,2-c]pyridin-6-amine]
Second: COC(=O)c1ccc(Nc2cc3[nH]c(-c4ccccn4)cc3cn2)cc1 [Compound 67, methyl 4-[[2-(2-pyridyl)-1H-pyrrolo[3,2-c]pyridin-6-yl]amino]benzoate]
The Emax of the first is higher: > 100% for the first, 30 to 50% for the second.

`FC(F)(F)c1cccc(Nc2cc3[nH]c(-c4ccccn4)cc3cn2)c1` [Compound 66, 2-(2-pyridyl)-N-[3-(trifluoromethyl)phenyl]-1H-pyrrolo[3,2-c]pyridin-6-amine] and `FC(F)(F)Oc1cccc(Nc2cc3[nH]c(-c4ccccn4)cc3cn2)c1` [Compound 69, 2-(2-pyridyl)-N-[3-(trifluoromethoxy)phenyl]-1H-pyrrolo[3,2-c]pyridin-6-amine] fall in the same range of Emax: 30 to 50% for the first, 30 to 50% for the second.

First: N#Cc1ccc(Nc2cc3[nH]c(-c4ccccn4)cc3cn2)cc1 [Compound 68, 4-[[2-(2-pyridyl)-1H-pyrrolo[3,2-c]pyridin-6-yl]amino]benzonitrile]
Second: CS(=O)(=O)c1ccc(Nc2cc3[nH]c(-c4ccccn4)cc3cn2)cc1 [Compound 72, N-(4-methylsulfonylphenyl)-2-(2-pyridyl)-1H-pyrrolo[3,2-c]pyridin-6-amine]
The Emax of the first is lower: 50 to 100% for the first, > 100% for the second.

First: CN(C)C(=O)c1ccc(Nc2cc3[nH]c(-c4ccccn4)cc3cn2)cc1 [Compound 70, N,N-dimethyl-4-[[2-(2-pyridyl)-1H-pyrrolo[3,2-c]pyridin-6-yl]amino]benzamide]
Second: Fc1cccc(Nc2cc3[nH]c(-c4ccccn4)cc3cn2)c1 [Compound 71, N-(3-fluorophenyl)-2-(2-pyridyl)-1H-pyrrolo[3,2-c]pyridin-6-amine]
The Emax of the first is higher: > 100% for the first, 50 to 100% for the second.

First: CC(C)Oc1cccc(Nc2cc3[nH]c(-c4ccccn4)cc3cn2)c1 [Compound 73, N-(3-isopropoxyphenyl)-2-(2-pyridyl)-1H-pyrrolo[3,2-c]pyridin-6-amine]
Second: CC(=O)Nc1ccc(Nc2cc3[nH]c(-c4cccnc4)cc3cn2)cc1 [Compound 74, N-[4-[[2-(3-pyridyl)-1H-pyrrolo[3,2-c]pyridin-6-yl]amino]phenyl]acetamide]
The Emax of the first is lower: 50 to 100% for the first, > 100% for the second.
